In ChEMBL document CHEMBL1201862, “PubChem BioAssay data set” (2004):
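Each compound was tested at five concentrations against cells in 96-well plates for 48 hours. The concentration for 50% growth inhibition is given as GI50.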 Calls of active or inactive are those of the source. Cut-off read from the data, not from the text of the source: active = GI50 up to about 1.1 µM and inactive = higher.

Legend:
Experiment in all cases: NCI anticancer screen, dose series, 48 h
HL-60 = system: HL-60
OVCAR-3 = system: OVCAR-3
OVCAR-8 = system: OVCAR-8
HT-29 = system: HT-29
K562 = system: K562
ACHN = system: ACHN
786-0 = system: 786-0
U-251 = system: U-251
SK-OV-3 = system: SK-OV-3
M14 = system: M14
Malme-3M = system: Malme-3M
LOX IMVI = system: LOX IMVI
DLD-1 = system: DLD-1
DMS-273 = system: DMS-273
RPMI-8226 = system: RPMI-8226
HCT-15 = system: HCT-15
KM12 = system: KM12
NCI-H23 = system: NCI-H23
SF-295 = system: SF-295
TK-10 = system: TK-10
SN12C = system: SN12C
SR = system: SR
UACC-62 = system: UACC-62
SK-MEL-5 = system: SK-MEL-5
NCI-H460 = system: NCI-H460
A549 = system: A549
SF-539 = system: SF-539
DMS-114 = system: DMS-114
SNB-78 = system: SNB-78
IGROV-1 = system: IGROV-1
HCC 2998 = system: HCC 2998
MOLT-4 = system: MOLT-4
RXF 393 = system: RXF 393
COLO 205 = system: COLO 205
A498 = system: A498
OVCAR-4 = system: OVCAR-4
CCRF-CEM = system: CCRF-CEM
M19-MEL = system: M19-MEL
LXFL 529 = system: LXFL 529
SNB-75 = system: SNB-75
SW-620 = system: SW-620
SK-MEL-28 = system: SK-MEL-28
EKVX = system: EKVX
SF-268 = system: SF-268
RXF 631 = system: RXF 631
SK-MEL-2 = system: SK-MEL-2
UO-31 = system: UO-31
UACC-257 = system: UACC-257
NCI-H226 = system: NCI-H226
KM-20L2 = system: KM-20L2
NCI-H522 = system: NCI-H522
HCT-116 = system: HCT-116
CAKI-1 = system: CAKI-1
SNB-19 = system: SNB-19
XF498 = system: XF498
OVCAR-5 = system: OVCAR-5
HOP-92 = system: HOP-92

## CC1CC2C(=O)N(c3ccccc3)C(=O)C2c2[nH]c3ccccc3c21 (stereo not drawn)
HL-60
  GI50: 31.8 µM (inactive)
OVCAR-3
  GI50: 48.2 µM (inactive)
OVCAR-8
  GI50: 59.3 µM (inactive)
HT-29
  GI50: > 100 µM (inactive)
K562
  GI50: 33 µM (inactive)
ACHN
  GI50: 57.7 µM (inactive)
786-0
  GI50: 50.2 µM (inactive)
U-251
  GI50: 38.8 µM (inactive)
SK-OV-3
  GI50: 14.2 µM (inactive)
M14
  GI50: 78.9 µM (inactive)
Malme-3M
  GI50: 46.1 µM (inactive)
LOX IMVI
  GI50: 45.5 µM (inactive)
DLD-1
  GI50: 89.3 µM (inactive)
DMS-273
  GI50: 79.4 µM (inactive)
RPMI-8226
  GI50: 37.6 µM (inactive)
HCT-15
  GI50: > 100 µM
KM12
  GI50: 58.5 µM (inactive)
NCI-H23
  GI50: 58.9 µM (inactive)
SF-295
  GI50: 44.8 µM (inactive)
TK-10
  GI50: 85.7 µM (inactive)
SN12C
  GI50: > 100 µM (inactive)
SR
  GI50: 29.2 µM (inactive)
UACC-62
  GI50: > 100 µM (inactive)
SK-MEL-5
  GI50: > 100 µM (inactive)
NCI-H460
  GI50: 63.7 µM (inactive)
A549
  GI50: 94 µM (inactive)
SF-539
  GI50: 38.8 µM (inactive)
DMS-114
  GI50: 30.7 µM (inactive)
SNB-78
  GI50: > 100 µM (inactive)
IGROV-1
  GI50: > 100 µM (inactive)
HCC 2998
  GI50: > 100 µM (inactive)
MOLT-4
  GI50: 28.4 µM (inactive)
RXF 393
  GI50: 30.3 µM (inactive)
COLO 205
  GI50: 73.3 µM (inactive)
A498
  GI50: > 100 µM (inactive)
OVCAR-4
  GI50: 41.8 µM (inactive)
CCRF-CEM
  GI50: 35.6 µM (inactive)
M19-MEL
  GI50: 41.5 µM (inactive)
LXFL 529
  GI50: 42.5 µM (inactive)
SNB-75
  GI50: 28.9 µM (inactive)
SW-620
  GI50: > 100 µM (inactive)
SK-MEL-28
  GI50: 58.9 µM (inactive)
EKVX
  GI50: > 100 µM (inactive)
SF-268
  GI50: > 100 µM (inactive)
RXF 631
  GI50: 34.3 µM (inactive)

## O=C1c2ccccc2C(=O)N1C/C=N/NS(=O)(=O)c1ccc(F)cc1
HL-60
  GI50: > 100 µM (inactive)
OVCAR-8
  GI50: > 100 µM (inactive)
K562
  GI50: > 100 µM (inactive)
ACHN
  GI50: > 100 µM (inactive)
786-0
  GI50: > 100 µM (inactive)
SK-MEL-2
  GI50: > 100 µM (inactive)
UO-31
  GI50: > 100 µM (inactive)
U-251
  GI50: > 100 µM (inactive)
Malme-3M
  GI50: > 100 µM (inactive)
LOX IMVI
  GI50: > 100 µM (inactive)
DLD-1
  GI50: > 100 µM (inactive)
DMS-273
  GI50: > 100 µM (inactive)
RPMI-8226
  GI50: > 100 µM (inactive)
HCT-15
  GI50: > 100 µM
KM12
  GI50: > 100 µM (inactive)
UACC-257
  GI50: > 100 µM (inactive)
NCI-H23
  GI50: > 100 µM (inactive)
SF-295
  GI50: > 100 µM (inactive)
NCI-H226
  GI50: > 100 µM (inactive)
TK-10
  GI50: > 100 µM (inactive)
KM-20L2
  GI50: > 100 µM (inactive)
SN12C
  GI50: > 100 µM (inactive)
SR
  GI50: > 100 µM (inactive)
UACC-62
  GI50: > 100 µM (inactive)
SK-MEL-5
  GI50: > 100 µM (inactive)
NCI-H522
  GI50: > 100 µM (inactive)
A549
  GI50: > 100 µM (inactive)
HCT-116
  GI50: > 100 µM (inactive)
CAKI-1
  GI50: > 100 µM (inactive)
SNB-19
  GI50: > 100 µM (inactive)
SF-539
  GI50: > 100 µM (inactive)
DMS-114
  GI50: > 100 µM (inactive)
IGROV-1
  GI50: > 100 µM (inactive)
HCC 2998
  GI50: > 100 µM (inactive)
MOLT-4
  GI50: > 100 µM (inactive)
COLO 205
  GI50: > 100 µM (inactive)
OVCAR-4
  GI50: > 100 µM (inactive)
XF498
  GI50: > 100 µM (inactive)
CCRF-CEM
  GI50: > 100 µM (inactive)
M19-MEL
  GI50: > 100 µM (inactive)
LXFL 529
  GI50: > 100 µM (inactive)
SNB-75
  GI50: 59 µM (inactive)
SW-620
  GI50: > 100 µM (inactive)
EKVX
  GI50: > 100 µM (inactive)
SF-268
  GI50: > 100 µM (inactive)
RXF 631
  GI50: > 100 µM (inactive)

## NC(=O)CCC(Nc1c2ccccc2nc2ccccc12)C(=O)O (stereo not drawn)
HL-60
  GI50: 15.3 µM (inactive)
OVCAR-3
  GI50: 56.8 µM (inactive)
OVCAR-8
  GI50: > 100 µM (inactive)
HT-29
  GI50: 93.1 µM (inactive)
K562
  GI50: 45.7 µM (inactive)
ACHN
  GI50: 91 µM (inactive)
786-0
  GI50: > 100 µM (inactive)
SK-MEL-2
  GI50: > 100 µM (inactive)
U-251
  GI50: > 100 µM (inactive)
M14
  GI50: > 100 µM (inactive)
Malme-3M
  GI50: > 100 µM (inactive)
LOX IMVI
  GI50: 63.7 µM (inactive)
DLD-1
  GI50: 88.3 µM (inactive)
DMS-273
  GI50: > 100 µM (inactive)
RPMI-8226
  GI50: 17.2 µM (inactive)
HCT-15
  GI50: > 100 µM
KM12
  GI50: > 100 µM (inactive)
UACC-257
  GI50: 65.8 µM (inactive)
NCI-H23
  GI50: > 100 µM (inactive)
SF-295
  GI50: > 100 µM (inactive)
NCI-H226
  GI50: > 100 µM (inactive)
TK-10
  GI50: > 100 µM (inactive)
KM-20L2
  GI50: > 100 µM (inactive)
OVCAR-5
  GI50: > 100 µM (inactive)
SN12C
  GI50: > 100 µM (inactive)
SR
  GI50: 55.2 µM (inactive)
NCI-H460
  GI50: 86.9 µM (inactive)
NCI-H522
  GI50: > 100 µM (inactive)
A549
  GI50: > 100 µM (inactive)
HCT-116
  GI50: 91 µM (inactive)
CAKI-1
  GI50: > 100 µM (inactive)
SF-539
  GI50: > 100 µM (inactive)
HCC 2998
  GI50: > 100 µM (inactive)
MOLT-4
  GI50: 58.1 µM (inactive)
RXF 393
  GI50: > 100 µM (inactive)
COLO 205
  GI50: > 100 µM (inactive)
OVCAR-4
  GI50: 4.14 µM (inactive)
CCRF-CEM
  GI50: > 100 µM (inactive)
M19-MEL
  GI50: > 100 µM (inactive)
HOP-92
  GI50: 41.1 µM (inactive)
LXFL 529
  GI50: > 100 µM (inactive)
SNB-75
  GI50: > 100 µM (inactive)
SW-620
  GI50: > 100 µM (inactive)
SK-MEL-28
  GI50: > 100 µM (inactive)
EKVX
  GI50: 71.3 µM (inactive)
SF-268
  GI50: > 100 µM (inactive)
RXF 631
  GI50: 77.3 µM (inactive)
